US20240287089A1, “Preparation and Uses of 7-Azaindenoisoquinolines” (Purdue Research Foundation, priority 0001, published 2024)
Blank lines part the entries; values can stand above or below the molecule they belong to.

Columns and labels:
[1] = system: NCI-60 cancer cell lines; experiment: NCI-60 cytotoxicity assay, MGM; type: cell-based; conditions: Homo sapiens; entire panel of NCI-60 cancer cell lines; read-out: MGM (approximate average of GI50 values across the NCI-60 panel)
Protocol: (§1) The antiproliferative activities of the indenoisquinoline compounds are determined in the NCI-60 cancer cell lines of the National Cancer Institute Developmental Therapeutics Program (NCI-DTP). […] Cancer cells are incubated with the test compounds at five concentrations ranging from 100 μM to 10 nM for 48 h. After the treated cancer cells are stained with sulforhodamine B dye, the percentage growth is plotted as a function of the common logarithm of the tested compound concentration. […] The approximate average of GI50 values across the entire panel of NCI-60 cancer cell lines for each compound is recorded as the MGM value.
(§2) NCI-60 Cytotoxicity Assay. Compounds were submitted to the National Cancer Institute Developmental Therapeutic Program to determine their growth-inhibitory potentials in NCI-60 cell lines. All compounds satisfied the pre-screening proceeded into the 5-dose cell viability assay, in which cells were treated for 48 h at 5 dosages ranging from 100 μM to 10 nM.

[2] = system: SF-539 (CNS); experiment: NCI-60 cytotoxicity assay; type: cell-based; conditions: Homo sapiens; SF-539 CNS; 48 h, sulforhodamine B; read-out: Comparative Cytotoxicity GI50, CNS SF-539
Protocol: as §1, §2

[3] = system: HCT-116 (Colon); experiment: NCI-60 cytotoxicity assay; type: cell-based, human; conditions: Homo sapiens; HCT-116 colon; 48 h, sulforhodamine B; read-out: Comparative Cytotoxicity GI50, Colon HCT-116
Protocol: as §1, §2

[4] = system: HOP-62 (Lung); experiment: NCI-60 cytotoxicity assay; type: cell-based, human; conditions: Homo sapiens; HOP-62 lung; 48 h, sulforhodamine B; read-out: Comparative Cytotoxicity GI50, Lung HOP-62
Protocol: as §1, §2

[5] = system: SN12C (Renal); experiment: NCI-60 cytotoxicity assay; type: cell-based, human; conditions: Homo sapiens; SN12C renal; 48 h, sulforhodamine B; read-out: Comparative Cytotoxicity GI50, Renal SN12C
Protocol: as §1, §2

[6] = system: OVCAR-3 (Ovarian); experiment: NCI-60 cytotoxicity assay; type: cell-based, human; conditions: Homo sapiens; OVCAR-3 ovarian; 48 h, sulforhodamine B; read-out: Comparative Cytotoxicity GI50, Ovarian OVCAR-3
Protocol: as §1, §2

[7] = system: MCF7 (Breast); experiment: NCI-60 cytotoxicity assay; type: cell-based, human; conditions: Homo sapiens; MCF7 breast; 48 h, sulforhodamine B; read-out: Comparative Cytotoxicity GI50, Breast MCE7
Protocol: as §1, §2

[8] = system: UACC-62 (Melanoma); experiment: NCI-60 cytotoxicity assay; type: cell-based, human; conditions: Homo sapiens; UACC-62 melanoma; 48 h, sulforhodamine B; read-out: Comparative Cytotoxicity GI50, Melanoma UACC-62
Protocol: as §1, §2

[9] = system: DU-145 (Prostate); experiment: NCI-60 cytotoxicity assay; type: cell-based, human; conditions: Homo sapiens; DU-145 prostate; 48 h, sulforhodamine B; read-out: Comparative Cytotoxicity GI50, Prostate DU-145
Protocol: as §1, §2

[10] = system: Caco-2 cells; experiment: Caco-2 permeability; type: in vitro ADME; conditions: for Efflux Ratio / Recovery (%)AP-BL / Recovery (%)BL-AP: Caco-2; for Papp (A→B) / Papp (B→A): Caco-2, 5 μM, 2 h
[11] = Brain penetration and plasma/brain pharmacokinetics in combination with Temodar or Lynparza
[12] = Lynparza 100 mg/kg PO + LMP400 10 mg/kg IV, 0.5 h
[13] = Lynparza 100 mg/kg PO + LMP400 10 mg/kg IV, 1 h
[14] = Lynparza 100 mg/kg PO + LMP400 10 mg/kg IV, 2 h
[15] = Lynparza 100 mg/kg PO + LMP400 10 mg/kg IV, 4 h
[16] = Lynparza 100 mg/kg PO + LMP400 10 mg/kg IV, 8 h
[17] = Lynparza 100 mg/kg PO + LMP400 10 mg/kg IV, 24 h
[18] = Lynparza 100 mg/kg PO + LMP744 10 mg/kg IV, 0.25 h
[19] = Lynparza 100 mg/kg PO + LMP744 10 mg/kg IV, 0.5 h
[20] = Lynparza 100 mg/kg PO + LMP744 10 mg/kg IV, 1 h
[21] = Lynparza 100 mg/kg PO + LMP744 10 mg/kg IV, 2 h
[22] = Lynparza 100 mg/kg PO + LMP744 10 mg/kg IV, 4 h
[23] = Lynparza 100 mg/kg PO + LMP744 10 mg/kg IV, 8 h
[24] = Lynparza 100 mg/kg PO + LMP744 10 mg/kg IV, 24 h
[25] = Temador 125 mg/kg PO + LMP400 10 mg/kg IV, 1 h
[26] = Temador 125 mg/kg PO + LMP400 10 mg/kg IV, 2 h
[27] = Temador 125 mg/kg PO + LMP400 10 mg/kg IV, 4 h
[28] = Temador 125 mg/kg PO + LMP400 10 mg/kg IV, 8 h
[29] = Temador 125 mg/kg PO + LMP400 10 mg/kg IV, 24 h
[30] = Temador 125 mg/kg PO + LMP744 20 mg/kg IV, 0.25 h
[31] = Temador 125 mg/kg PO + LMP744 20 mg/kg IV, 0.5 h
[32] = Temador 125 mg/kg PO + LMP744 20 mg/kg IV, 1 h
[33] = Temador 125 mg/kg PO + LMP744 20 mg/kg IV, 2 h
[34] = Temador 125 mg/kg PO + LMP744 20 mg/kg IV, 4 h
[35] = Temador 125 mg/kg PO + LMP744 20 mg/kg IV, 8 h
[36] = Temador 125 mg/kg PO + LMP744 20 mg/kg IV, 24 h

SMILES: COc1cc2c3c(n(CCCN4CCCCC4)c(=O)c2cc1OC)-c1cc2c(cc1C3=O)OCO2 [A6]
GI50 [1]: 1050 nM | GI50 [2]: 1460 nM | GI50 [3]: 420 nM | GI50 [4]: 1050 nM | GI50 [5]: 1610 nM | GI50 [6]: 1630 nM | GI50 [7]: 140 nM | GI50 [8]: 1380 nM | GI50 [9]: 1370 nM

SMILES: C[C@H]1O[C@@H](O[C@H]2[C@@H](O)C[C@H](O[C@H]3[C@@H](O)C[C@H](O[C@H]4CC[C@@]5(C)[C@H](CC[C@@H]6[C@@H]5C[C@@H](O)[C@]5(C)[C@@H](C7=CC(=O)OC7)CC[C@]65O)C4)O[C@@H]3C)O[C@@H]2C)C[C@H](O)[C@@H]1O [Digoxin]
Efflux Ratio [10]: 25.25 | Recovery (%)AP-BL [10]: 88.64% | Recovery (%)BL-AP [10]: 106.70% | Papp (A→B) [10]: 0.74 10^−6, cm/s | Papp (B→A) [10]: 18.71 10^−6, cm/s

SMILES: O=C(c1cc(Cc2n[nH]c(=O)c3ccccc23)ccc1F)N1CCN(C(=O)C2CC2)CC1 [Lynparza]
Brain Conc ([11]; Lynparza 100 mg/kg PO + LMP400 10 mg/kg IV, 0.25 h): 0.0131 ± 0.00699 µM | Brain Conc [11, 12]: 0.03336 ± 0.01887 µM | Plasma Conc [11, 12]: 1.384 ± 0.929 µM | Brain Conc [11, 13]: 0.05003 ± 0.00979 µM | Plasma Conc [11, 13]: 2.644 ± 0.762 µM | Brain Conc [11, 14]: 0.03044 ± 0.01589 µM | Plasma Conc [11, 14]: 1.637 ± 1.051 µM | Brain Conc [11, 15]: 0.01839 ± 0.00859 µM | Plasma Conc [11, 15]: 0.755 ± 0.46 µM | Brain Conc [11, 16]: BLOQ | Plasma Conc [11, 16]: 0.166 ± 0.208 µM | Brain Conc [11, 17]: BLOQ | Plasma Conc [11, 17]: BLOQ | Brain Conc [11, 18]: BLOQ | Plasma Conc [11, 18]: 0.345 ± 0.101 µM | Brain Conc [11, 19]: 0.0121 ± 0.00053 µM | Brain/Plasma Conc Ratio [11, 19]: 0.02 | Plasma Conc [11, 19]: 0.555 ± 0.0934 µM | Brain Conc [11, 20]: 0.0141 ± 0.0073 µM | Brain/Plasma Conc Ratio [11, 20]: 0.01 | Plasma Conc [11, 20]: 0.961 ± 0.189 µM | Brain Conc [11, 21]: 0.0449 ± 0.02008 µM | Plasma Conc [11, 21]: 1.61 ± 0.968 µM | Brain Conc [11, 22]: 0.0254 ± 0.00652 µM | Plasma Conc [11, 22]: 1.11 ± 0.25 µM | Brain Conc [11, 23]: BLOQ | Plasma Conc [11, 23]: 0.314 ± 0.185 µM | Brain Conc [11, 24]: BLOQ | Plasma Conc [11, 24]: BLOQ | concentration at 0.25 h ([11]; mouse, plasma, oral, Plasma Conc, Lynparza 100 mg/kg PO + LMP400 10 mg/kg IV, 0.25 h): 0.506 ± 0.423 µM

SMILES: CC(C)NCC(O)COc1cccc2ccccc12 (centres unmarked) [Propranolol]
Efflux Ratio [10]: 0.70 | Recovery (%)AP-BL [10]: 80.74% | Recovery (%)BL-AP [10]: 92.73% | Papp (A→B) [10]: 25.34 10^−6, cm/s | Papp (B→A) [10]: 17.63 10^−6, cm/s

Results, then the molecule that gave them:

Efflux Ratio [10]: 3.39 | Recovery (%)AP-BL [10]: 79.64% | Recovery (%)BL-AP [10]: 94.99% | Papp (A→B) [10]: 9.28 10^−6, cm/s | Papp (B→A) [10]: 31.47 10^−6, cm/s
SMILES: COc1cc2nc(N3CCN(C(=O)c4ccco4)CC3)nc(N)c2cc1OC [Prazosin]

Plasma Conc ([11]; Temador 125 mg/kg PO + LMP400 10 mg/kg IV, 0.25 h): 311.591 ± 40.73 µM | Brain Conc [11, 25]: 102.567 ± 16.241 µM | Brain/Plasma Conc Ratio [11, 25]: 0.50 | Brain/Plasma Conc Ratio [11, 26]: 0.56 | Plasma Conc [11, 26]: 80.639 ± 5.808 µM | Brain Conc [11, 27]: 4.739 ± 0.585 µM | Plasma Conc [11, 27]: 10.345 ± 0.724 µM | Brain Conc [11, 28]: 1.236 ± 0.654 µM | Brain/Plasma Conc Ratio [11, 28]: 0.38 | Plasma Conc [11, 28]: 3.295 ± 1.528 µM | Brain Conc [11, 29]: 0.122 ± 0.004 µM | Brain/Plasma Conc Ratio [11, 29]: 0.01 | Plasma Conc [11, 29]: 10.009 ± 5.943 µM | Brain Conc [11, 30]: 123.222 ± 49.748 µM | Brain/Plasma Conc Ratio [11, 30]: 0.33 | Plasma Conc [11, 30]: 376.314 ± 182.744 µM | Brain Conc [11, 31]: 83.539 ± 43.505 µM | Brain/Plasma Conc Ratio [11, 31]: 0.23 | Plasma Conc [11, 31]: 370.863 ± 119.965 µM | Brain/Plasma Conc Ratio [11, 32]: 0.46 | Plasma Conc [11, 32]: 357.779 ± 86.447 µM | Brain Conc [11, 33]: 96.544 ± 15.254 µM | Brain/Plasma Conc Ratio [11, 33]: 0.15 | Brain Conc [11, 34]: 12.75 ± 2.849 µM | Brain/Plasma Conc Ratio [11, 34]: 0.47 | Plasma Conc [11, 34]: 27.155 ± 4.732 µM | Brain Conc [11, 35]: 5.765 ± 3.855 µM | Brain/Plasma Conc Ratio [11, 35]: 0.57 | Plasma Conc [11, 35]: 10.048 ± 6.715 µM | Brain Conc [11, 36]: 0.914 ± 0.532 µM | Brain/Plasma Conc Ratio [11, 36]: 0.60 | concentration at 0.25 h ([11]; mouse, brain, oral, Brain Conc, Temador 125 mg/kg PO + LMP400 10 mg/kg IV, 0.25 h): 86.6 ± 10.4 µM | concentration at 0.5 h ([11]; mouse, brain, oral, Brain Conc, Temador 125 mg/kg PO + LMP400 10 mg/kg IV, 0.5 h): 47.4 ± 24.5 µM | concentration at 1 h ([11]; mouse, brain, oral, Brain Conc, Temador 125 mg/kg PO + LMP744 20 mg/kg IV, 1 h): 154 ± 38.8 µM | concentration at 0.5 h ([11]; mouse, plasma, oral, Plasma Conc, Temador 125 mg/kg PO + LMP400 10 mg/kg IV, 0.5 h): 389 ± 66 µM | concentration at 1 h ([11]; mouse, plasma, oral, Plasma Conc, Temador 125 mg/kg PO + LMP400 10 mg/kg IV, 1 h): 205 ± 27.3 µM | concentration at 2 h ([11]; mouse, plasma, oral, Plasma Conc, Temador 125 mg/kg PO + LMP744 20 mg/kg IV, 2 h): 552 ± 309 µM | concentration at 24 h ([11]; mouse, plasma, oral, Plasma Conc, Temador 125 mg/kg PO + LMP744 20 mg/kg IV, 24 h): 1.58 ± 0.509 µM
SMILES: Cn1nnc2c(C(N)=O)ncn2c1=O [Temadar]
